Reference: publication PMC11820409, “Synthesis and Evaluation of the AhR Activity of Indolo[3,2-b]carbazole Derivatives” (Molecules, 2025)
Where two headings read alike, the source gives them in different places.

Legend:
[1] = molecular target: T1, AhR (Mus musculus, UniProt P30561); experiment: AhR induction, luciferase reporter gene (CALUX), mouse H1L7.5c3 cells; type: cell-based
T1 construct: cells that were stably transfected with a luciferase reporter gene; endogenous in cells; host or cells: H1L7.5c3 (mouse)
T1 sequence (P30561 10-805 limits assumed): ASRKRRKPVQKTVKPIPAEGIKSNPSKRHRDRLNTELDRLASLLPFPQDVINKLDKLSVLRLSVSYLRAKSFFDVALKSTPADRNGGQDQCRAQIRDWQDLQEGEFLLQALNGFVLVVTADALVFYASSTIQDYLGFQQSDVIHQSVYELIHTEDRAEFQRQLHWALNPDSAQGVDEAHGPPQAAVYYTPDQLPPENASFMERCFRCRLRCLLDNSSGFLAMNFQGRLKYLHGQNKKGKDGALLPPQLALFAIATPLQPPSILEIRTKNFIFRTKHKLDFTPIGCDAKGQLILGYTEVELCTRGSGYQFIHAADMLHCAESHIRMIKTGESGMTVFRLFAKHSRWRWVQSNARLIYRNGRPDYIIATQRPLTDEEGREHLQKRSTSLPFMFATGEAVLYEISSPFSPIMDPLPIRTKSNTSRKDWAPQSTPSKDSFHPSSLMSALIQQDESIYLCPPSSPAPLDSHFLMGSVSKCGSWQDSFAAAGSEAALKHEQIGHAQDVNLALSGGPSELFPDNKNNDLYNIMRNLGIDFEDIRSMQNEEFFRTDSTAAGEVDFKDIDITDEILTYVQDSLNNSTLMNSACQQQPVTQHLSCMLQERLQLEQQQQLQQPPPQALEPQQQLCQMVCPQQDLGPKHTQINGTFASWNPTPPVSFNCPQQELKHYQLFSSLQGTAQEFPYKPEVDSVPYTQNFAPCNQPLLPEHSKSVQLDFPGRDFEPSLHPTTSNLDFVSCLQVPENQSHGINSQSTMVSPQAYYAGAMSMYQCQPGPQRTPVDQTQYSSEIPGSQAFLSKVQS
T1 sequence (P11499 whole entry partner): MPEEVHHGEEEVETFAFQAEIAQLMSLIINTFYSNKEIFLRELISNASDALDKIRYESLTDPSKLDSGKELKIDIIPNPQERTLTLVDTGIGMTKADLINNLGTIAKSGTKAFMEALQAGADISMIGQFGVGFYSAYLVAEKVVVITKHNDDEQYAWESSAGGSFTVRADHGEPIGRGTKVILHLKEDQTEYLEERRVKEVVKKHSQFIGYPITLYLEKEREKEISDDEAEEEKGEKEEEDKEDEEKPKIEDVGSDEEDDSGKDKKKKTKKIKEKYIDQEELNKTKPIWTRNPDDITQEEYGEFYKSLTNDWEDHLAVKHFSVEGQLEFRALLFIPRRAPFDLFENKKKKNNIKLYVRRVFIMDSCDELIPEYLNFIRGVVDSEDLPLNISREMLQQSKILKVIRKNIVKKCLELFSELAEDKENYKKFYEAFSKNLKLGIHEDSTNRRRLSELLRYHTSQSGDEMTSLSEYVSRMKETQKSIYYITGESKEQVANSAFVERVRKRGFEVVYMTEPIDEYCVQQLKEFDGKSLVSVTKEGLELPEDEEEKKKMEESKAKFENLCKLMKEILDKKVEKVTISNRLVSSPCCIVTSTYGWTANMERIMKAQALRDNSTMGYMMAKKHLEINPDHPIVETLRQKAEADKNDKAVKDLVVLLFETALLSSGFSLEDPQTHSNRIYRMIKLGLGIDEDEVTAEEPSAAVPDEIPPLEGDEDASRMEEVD
T1 sequence (O08915 whole entry partner): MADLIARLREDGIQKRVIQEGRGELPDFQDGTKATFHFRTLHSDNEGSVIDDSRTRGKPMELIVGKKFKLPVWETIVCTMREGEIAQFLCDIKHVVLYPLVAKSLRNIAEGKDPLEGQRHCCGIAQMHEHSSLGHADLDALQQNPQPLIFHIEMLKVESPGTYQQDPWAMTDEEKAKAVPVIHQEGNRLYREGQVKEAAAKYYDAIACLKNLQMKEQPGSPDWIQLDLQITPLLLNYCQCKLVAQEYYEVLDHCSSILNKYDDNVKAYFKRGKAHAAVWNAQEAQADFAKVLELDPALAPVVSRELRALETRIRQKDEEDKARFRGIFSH
Description: (§1) The activity on AhR of the synthesized compounds was evaluated in cells that were stably transfected with a luciferase reporter gene. They were tested in four different cell lines, namely in human (HG2L7.5c1), mouse (H1L7.5c3), rat (H4L7.5c2) and guinea pig (G16L7.5c1) cells.
(§2) The synthesized alkaloids were evaluated for their ability to induce AhR in four different cell lines, more specifically in human (HG2L7.5c1), mouse (H1L7.5c3), rat (H4L7.5c2) and guinea pig (G16L7.5c1) cells that were stably transfected with a luciferase reporter gene. The results were calculated in EC50 (M) and compared to those of dioxin (TCDD), the principal ligand of the receptor. The protocol followed is described below.
(§3) Human, mouse, rat and guinea pig cells were grown in 100 mm cell culture plates (Corning Glass Works; Corning, NY, USA) using a sterile technique, maintained in alpha-minimum essential media (α-MEM) supplemented with 10% (v/v) fetal bovine serum (FBS) and G418 (1 mg/mL), and incubated at >80% humidity and 37◦C. For the CALUX analysis, plates of stable cell clones (approximately 80–100% confluent) were trypsinized and resuspended in 20 mL α-MEM. An aliquot (100 μL) of the indicated cell suspension was added into sterile 96-well tissue culture plates (Corning), and the plates were incubated for 24 h prior to ligand exposure, allowing the cells to reach confluence. Prior to ligand addition, the wells were washed with 1 × phosphate-buffered saline (PBS), and then, cells were incubated with the indicated concentration of DMSO (10 μL/mL) or corresponding solutions of TCDD or tested compounds in DMSO for 6 h or 24 h at 37 °C. After incubation, the cells were washed twice with PBS, 100 μL of 1 × Lysis buffer (Promega; Madison, WI, USA) was added to each well, and the plate was placed on a plate shaker at room temperature until the cells were lysed (approximately 20 min). Luciferase activity was measured using an automated microplate luminometer (Anthos Lucy2, Anthos Labtec Instruments, Wals/Salzburg, Austria) in enhanced flash mode with the automatic injection of 50 μL of Promega-stabilized luciferase reagent. Examples of the induction curves of the tested compounds are available in the Supplementary Materials.

[2] = molecular target: T2, AhR (Cavia porcellus, UniProt Q6J287); experiment: AhR induction, luciferase reporter gene (CALUX), guinea pig G16L7.5c1 cells; type: cell-based; conditions: 6 h incubation
T2 construct: cells that were stably transfected with a luciferase reporter gene; endogenous in cells; host or cells: G16L7.5c1 (guinea pig)
T2 sequence (Q6J287 1-846): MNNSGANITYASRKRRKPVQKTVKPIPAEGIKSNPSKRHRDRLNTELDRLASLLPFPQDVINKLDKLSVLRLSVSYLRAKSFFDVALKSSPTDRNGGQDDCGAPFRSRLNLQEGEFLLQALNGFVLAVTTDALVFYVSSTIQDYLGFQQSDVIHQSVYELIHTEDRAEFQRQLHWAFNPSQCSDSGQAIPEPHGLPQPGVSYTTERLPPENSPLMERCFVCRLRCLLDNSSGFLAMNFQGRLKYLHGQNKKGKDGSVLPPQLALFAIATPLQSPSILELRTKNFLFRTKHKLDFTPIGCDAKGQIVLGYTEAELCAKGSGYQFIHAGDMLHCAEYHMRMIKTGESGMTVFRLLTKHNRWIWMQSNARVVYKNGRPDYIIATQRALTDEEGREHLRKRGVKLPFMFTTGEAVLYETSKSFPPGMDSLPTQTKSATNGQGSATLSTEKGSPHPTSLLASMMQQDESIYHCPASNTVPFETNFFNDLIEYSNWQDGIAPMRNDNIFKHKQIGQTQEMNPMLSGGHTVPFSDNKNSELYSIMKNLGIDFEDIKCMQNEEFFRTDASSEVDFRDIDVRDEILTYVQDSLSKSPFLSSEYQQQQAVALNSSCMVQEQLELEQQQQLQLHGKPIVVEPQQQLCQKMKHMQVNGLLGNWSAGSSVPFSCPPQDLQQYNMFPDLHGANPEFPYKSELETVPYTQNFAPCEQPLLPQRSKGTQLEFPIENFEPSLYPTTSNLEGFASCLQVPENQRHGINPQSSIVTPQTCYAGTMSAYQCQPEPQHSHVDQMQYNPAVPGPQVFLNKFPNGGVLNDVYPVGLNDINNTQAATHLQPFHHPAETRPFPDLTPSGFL
Description: as §1, §2, §3

[3] = molecular target: T3, AhR (Rattus norvegicus, UniProt P41738); experiment: AhR induction, luciferase reporter gene (CALUX), rat H4L7.5c2 cells; type: cell-based; conditions: 6 h incubation
T3 construct: cells that were stably transfected with a luciferase reporter gene; endogenous in cells; host or cells: H4L7.5c2 (rat)
T3 sequence (P41738 10-853): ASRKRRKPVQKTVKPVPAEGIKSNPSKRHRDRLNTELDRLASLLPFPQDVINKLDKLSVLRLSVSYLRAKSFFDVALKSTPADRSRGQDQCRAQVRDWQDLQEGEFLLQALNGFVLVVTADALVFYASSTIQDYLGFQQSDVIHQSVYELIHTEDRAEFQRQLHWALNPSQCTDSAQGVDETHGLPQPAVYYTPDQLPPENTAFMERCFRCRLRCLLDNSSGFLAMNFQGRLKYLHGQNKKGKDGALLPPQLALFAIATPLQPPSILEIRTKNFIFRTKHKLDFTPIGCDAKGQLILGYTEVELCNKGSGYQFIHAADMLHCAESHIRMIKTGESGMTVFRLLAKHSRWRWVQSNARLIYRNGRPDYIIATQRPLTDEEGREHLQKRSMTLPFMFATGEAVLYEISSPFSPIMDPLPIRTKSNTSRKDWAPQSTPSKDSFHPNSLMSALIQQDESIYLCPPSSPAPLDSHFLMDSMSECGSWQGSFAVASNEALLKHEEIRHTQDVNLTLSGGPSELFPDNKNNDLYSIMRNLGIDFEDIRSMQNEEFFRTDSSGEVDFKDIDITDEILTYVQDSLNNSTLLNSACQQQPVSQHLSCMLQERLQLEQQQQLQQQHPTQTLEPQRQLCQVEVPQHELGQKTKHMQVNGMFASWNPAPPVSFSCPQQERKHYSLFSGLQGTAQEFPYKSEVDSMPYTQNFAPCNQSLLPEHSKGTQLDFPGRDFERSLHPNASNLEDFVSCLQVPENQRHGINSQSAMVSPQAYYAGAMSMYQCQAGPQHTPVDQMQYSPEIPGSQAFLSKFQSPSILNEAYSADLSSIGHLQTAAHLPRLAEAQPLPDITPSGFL
Description: as §1, §2, §3

[4] = molecular target: T4, AhR (Homo sapiens, UniProt P35869); experiment: AhR induction, luciferase reporter gene (CALUX), human HG2L7.5c1 cells; type: cell-based; conditions: 6 h incubation
T4 construct: cells that were stably transfected with a luciferase reporter gene; endogenous in cells; host or cells: HG2L7.5c1 (human)
T4 sequence (P35869 11-848): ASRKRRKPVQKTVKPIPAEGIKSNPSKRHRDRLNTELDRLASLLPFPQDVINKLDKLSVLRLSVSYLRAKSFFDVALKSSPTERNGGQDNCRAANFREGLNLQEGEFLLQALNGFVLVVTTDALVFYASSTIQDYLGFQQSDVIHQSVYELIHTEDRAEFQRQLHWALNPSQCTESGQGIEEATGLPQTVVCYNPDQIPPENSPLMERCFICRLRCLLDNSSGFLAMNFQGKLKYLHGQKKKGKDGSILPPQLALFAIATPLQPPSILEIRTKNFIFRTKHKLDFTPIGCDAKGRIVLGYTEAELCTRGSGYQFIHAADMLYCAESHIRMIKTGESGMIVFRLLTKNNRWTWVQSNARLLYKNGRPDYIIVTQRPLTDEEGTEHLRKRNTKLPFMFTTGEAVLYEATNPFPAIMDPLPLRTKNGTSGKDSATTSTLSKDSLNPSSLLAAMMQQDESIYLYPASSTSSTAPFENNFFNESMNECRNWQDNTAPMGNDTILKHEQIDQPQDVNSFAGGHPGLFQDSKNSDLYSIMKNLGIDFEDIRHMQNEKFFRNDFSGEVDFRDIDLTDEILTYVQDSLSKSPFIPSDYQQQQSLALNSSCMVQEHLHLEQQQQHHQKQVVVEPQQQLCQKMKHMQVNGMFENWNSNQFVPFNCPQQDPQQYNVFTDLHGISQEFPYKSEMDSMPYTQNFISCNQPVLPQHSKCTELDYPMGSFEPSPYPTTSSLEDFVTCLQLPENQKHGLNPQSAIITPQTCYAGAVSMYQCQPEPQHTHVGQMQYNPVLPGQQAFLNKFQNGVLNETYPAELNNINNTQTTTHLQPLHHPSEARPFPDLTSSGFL
Description: The synthesized alkaloids were evaluated for their ability to induce AhR in four different cell lines, more specifically in human (HG2L7.5c1), mouse (H1L7.5c3), rat (H4L7.5c2) and guinea pig (G16L7.5c1) cells that were stably transfected with a luciferase reporter gene [41]. The results were calculated in EC50 (M) and compared to those of dioxin (TCDD), the principal ligand of the receptor.
Human, mouse, rat and guinea pig cells were grown in 100 mm cell culture plates (Corning Glass Works; Corning, NY, USA) using a sterile technique, maintained in alpha-minimum essential media (α-MEM) supplemented with 10% (v/v) fetal bovine serum (FBS) and G418 (1 mg/mL), and incubated at >80% humidity and 37◦C. For the CALUX analysis, plates of stable cell clones (approximately 80–100% confluent) were trypsinized and resuspended in 20 mL α-MEM. An aliquot (100 μL) of the indicated cell suspension was added into sterile 96-well tissue culture plates (Corning), and the plates were incubated for 24 h prior to ligand exposure, allowing the cells to reach confluence. […] Luciferase activity was measured using an automated microplate luminometer (Anthos Lucy2, Anthos Labtec Instruments, Wals/Salzburg, Austria) in enhanced flash mode with the automatic injection of 50 μL of Promega-stabilized luciferase reagent.

[5] = system: AhR; parameters: method as in PMID 31292477; conditions: fold reduction vs 6-FICZ; cited from earlier work
[6] = mouse H1L7.5c3 cells, 6 h incubation, read-out: EC50, 6 h Mouse

EC50 [1, 6] | EC50 [2] | EC50 [3] | EC50 [4] | EC50 [1] | Compound | reduced activity in comparison to 6-FICZ [5]
0.482 nM | 0.577 nM | 0.0799 nM | – | – | O=Cc1c2[nH]c3ccccc3c2cc2[nH]c3ccccc3c12 [Compound 1, 6-Formylindolo[3,2-b]carbazole] | –
0.98 nM | 0.174 nM | 0.0095 nM | 0.64 nM | – | c1ccc2c(c1)[nH]c1cc3c(cc12)[nH]c1ccccc13 [Compound 2, indolo[3,2-b]carbazole] | –
0.91 nM | 0.0913 nM | 0.0588 nM | 0.308 nM | – | Cc1c2[nH]c3ccccc3c2cc2[nH]c3ccccc3c12 [Compound 3, 6-methylindolo[3,2-b]carbazole] | –
0.922 nM | 5.77 nM | 0.473 nM | 4.52 nM | – | OCc1c2[nH]c3ccccc3c2cc2[nH]c3ccccc3c12 [Compound 4, 6-Hydroxymethylindolo[3,2-b]carbazole] | more than 10 folds
– | 0.0993 nM | 0.0598 nM | 0.328 nM | 0.92 nM | Cc1c2[nH]c3ccccc3c2c(Br)c2[nH]c3ccccc3c12 [Compound 5, 6-Methyl-12-bromoindolo[3,2-b]carbazole] | –

Compound | EC50 [1, 6] | EC50 [2] | EC50 [3] | EC50 [4] | EC50 [1] | reduced activity in comparison to 6-FICZ [5]
Clc1cc2c(cc1Cl)Oc1cc(Cl)c(Cl)cc1O2 [TCDD, reference compound] | 0.1 nM | 0.1 nM | 0.059 nM | 0.57 nM | – | –
